Patent US20260184710A1, “CASITAS B-LINEAGE LYMPHOMA PROTOONCOGENE B (CBL-B) DEGRADING COMPOUNDS AND ASSOCIATED METHODS OF USE” (Arvinas Operations, Inc., priority 2022, published 2026)

Experiments:
Cbl-b [1] = biological target: T1, Cbl-b (Homo sapiens, UniProt Q13191); experiment: Cbl-b Degradation Method A (FACS, anti-Cbl-b antibody staining); format: cell-based; conditions: Cbl-b-HiBit KI Jurkat Cells, incubated at least 20 hours; for DC50: half maximal degradation, read-out: Cbl-b Degredation Method A IC50; for Dmax: Jurkat, maximum degradation observed, read-out: Cbl-b Degredation Method A Dmax (%)
T1 construct: Cbl-b-HiBit KI Jurkat Cells were purchased from Promega; host or cells: Cbl-b-HiBiT knock-in Jurkat cells
T1 sequence (Q13191 whole entry): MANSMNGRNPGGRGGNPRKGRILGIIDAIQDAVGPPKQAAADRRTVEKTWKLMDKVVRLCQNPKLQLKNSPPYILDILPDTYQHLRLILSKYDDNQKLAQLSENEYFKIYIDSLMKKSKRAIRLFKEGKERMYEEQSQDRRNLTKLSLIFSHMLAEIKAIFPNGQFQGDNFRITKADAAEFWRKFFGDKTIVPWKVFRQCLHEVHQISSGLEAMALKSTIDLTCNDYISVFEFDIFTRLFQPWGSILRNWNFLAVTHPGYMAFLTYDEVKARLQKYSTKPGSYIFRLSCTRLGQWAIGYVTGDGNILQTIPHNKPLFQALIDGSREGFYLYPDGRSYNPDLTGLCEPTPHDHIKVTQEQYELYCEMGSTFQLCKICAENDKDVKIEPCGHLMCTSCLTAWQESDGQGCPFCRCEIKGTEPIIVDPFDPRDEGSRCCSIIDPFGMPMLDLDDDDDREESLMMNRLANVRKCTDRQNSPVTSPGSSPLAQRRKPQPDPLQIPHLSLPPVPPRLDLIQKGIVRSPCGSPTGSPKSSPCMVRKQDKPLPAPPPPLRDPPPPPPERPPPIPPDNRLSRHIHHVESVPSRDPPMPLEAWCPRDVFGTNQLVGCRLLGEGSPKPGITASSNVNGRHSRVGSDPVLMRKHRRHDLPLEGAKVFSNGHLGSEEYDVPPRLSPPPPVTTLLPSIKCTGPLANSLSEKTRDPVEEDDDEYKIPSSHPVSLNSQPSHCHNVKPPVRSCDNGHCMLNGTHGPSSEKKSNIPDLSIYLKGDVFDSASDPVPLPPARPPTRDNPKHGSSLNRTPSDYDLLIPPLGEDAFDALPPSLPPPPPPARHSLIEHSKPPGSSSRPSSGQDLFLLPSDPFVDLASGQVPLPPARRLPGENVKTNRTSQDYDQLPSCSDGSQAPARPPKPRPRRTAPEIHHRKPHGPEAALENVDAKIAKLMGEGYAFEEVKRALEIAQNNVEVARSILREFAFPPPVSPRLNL
Procedure, shortened: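 Cbl-b-HiBit KI Jurkat cells treated with compound for at least 20 h at 37 °C, then fixed, permeabilized and stained with anti-Cbl-b antibody plus anti-rabbit AF488 secondary. Cbl-b levels read by FACS; DC50 and Dmax (percent of control) derived.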

Cbl-b [2] = biological target: T1, Cbl-b; experiment: Cbl-b Degradation Method B (Nano-Glo HiBiT lytic detection); format: cell-based; conditions: Cbl-b-HiBit KI Jurkat Cells, incubated at least 6-24 hours; for DC50: half maximal degradation, read-out: Cbl-b Degredation Method B IC50; for Cbl-b Degredation Method B Dmax (%) / Dmax: maximum degradation observed; for Dmax: read-out: Cbl-b Degredation Method B Dmax (%)
Procedure, shortened: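 Cbl-b-HiBiT knock-in Jurkat cells (20,000/well) were treated after ~24 h plating with an 11-point 1:3 series for 6-24 h at 37° C. Remaining Cbl-b measured by Nano-Glo HiBiT lytic luminescence. DC50 and Dmax expressed as % of control.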

DC50 (Cbl-b [1]) | Dmax (Cbl-b [1]) | DC50 (Cbl-b [2]) | Cbl-b Degredation Method B Dmax (%) (Cbl-b [2]) | Dmax (Cbl-b [2]) | SMILES
50 to 500 nM | > 70% | < 5 nM | C (C ≤ 35) | – | Cn1cnnc1C[C@]1(c2cccc(N3Cc4c(cc(CN5CCN(C[C@H]6CC[C@H](OC7CCN(c8cccc9c8n(C)c(=O)n9C8CCC(=O)NC8=O)CC7)CC6)CC5(C)C)cc4C(F)(F)F)C3=O)c2)C[C@H](C#N)C1 (stereo partly drawn) [Example 301, (1r,3r)-3-(3-{6-[(2,2-dimethyl-4-{[(1r,4r)-4-({1-[1-(2,6-dioxopiperidin-3-yl)-3-methyl-2-oxo-2,3-dihydro-1H-1,3-benzodiazol-4-yl]piperidin-4-yl}oxy)cyclohexyl]methyl}piperazin-1-yl)methyl]-1-oxo-4-(trifluoromethyl)-2,3-dihydro-1H-isoindol-2-yl}phenyl)-3-[(4-methyl-4H-1,2,4-triazol-3-yl)methyl]cyclobutane-1-carbonitrile]
> 500 nM | – | > 500 nM | – | – | Cn1cnnc1CC1(c2cccc(N3Cc4c(cc(CN5CCN(C6CCC7(CC6)CCN(c6ccc8c(c6)C(=O)N(C6CCC(=O)NC6=O)C8=O)CC7)CC5)cc4C(F)(F)F)C3=O)c2)COC1 (stereo not drawn) [Example 105, 2-(2,6-dioxopiperidin-3-yl)-5-[9-(4-{[2-(3-{3-[(4-methyl-4H-1,2,4-triazol-3-yl)methyl]oxetan-3-yl}phenyl)-3-oxo-7-(trifluoromethyl)-2,3-dihydro-1H-isoindol-5-yl]methyl}piperazin-1-yl)-3-azaspiro[5.5]undecan-3-yl]-2,3-dihydro-1H-isoindole-1,3-dione]
< 5 nM | > 70% | < 5 nM | – | 35 to 70% | Cn1cnnc1[C@]1(c2cccc(N3Cc4c(cc(CN5CCC[C@H](CN6CCN(C[C@H]7CC[C@@H](OC8CCN(c9ccc%10c(c9F)CN(C9CCC(=O)NC9=O)C%10=O)CC8)CC7)CC6)C5)cc4C(F)(F)F)C3=O)c2)C[C@H](C)C1 (stereo partly drawn) [Example 159, 3-[4-fluoro-1-oxo-5-(4-{[(1r,4r)-4-[(4-{[(3S)-1-[(3-oxo-2-{3-[(1s,3r)-3-methyl-1-(4-methyl-4H-1,2,4-triazol-3-yl)cyclobutyl]phenyl}-7-(trifluoromethyl)-2,3-dihydro-1H-isoindol-5-yl)methyl]piperidin-3-yl]methyl}piperazin-1-yl)methyl]cyclohexyl]oxy}piperidin-1-yl)-2,3-dihydro-1H-isoindol-2-yl]piperidine-2,6-dione]
5 to 50 nM | < 35% | > 500 nM | – | – | Cn1cnnc1CC1(c2cccc(N3Cc4c(cc(CN5CCC[C@@H](CN6CCC(CC7CCN(c8ccc9c(c8)C(=O)N(C8CCC(=O)NC8=O)C9=O)CC7)CC6)C5)cc4C(F)(F)F)C3=O)c2)COC1 (stereo partly drawn) [Example 110, 2-(2,6-dioxopiperidin-3-yl)-5-{4-[(1-{[(3S)-1-{[2-(3-{3-[(4-methyl-4H-1,2,4-triazol-3-yl)methyl]oxetan-3-yl}phenyl)-3-oxo-7-(trifluoromethyl)-2,3-dihydro-1H-isoindol-5-yl]methyl}piperidin-3-yl]methyl}piperidin-4-yl)methyl]piperidin-1-yl}-2,3-dihydro-1H-isoindole-1,3-dione]
5 to 50 nM | 35 to 70% | < 5 nM | C (C ≤ 35) | – | CC(C)n1c(=O)n(C2CCC(=O)NC2=O)c2cccc(N3CCC(O[C@H]4CC[C@H](CN5CCCN(Cc6cc7c(c(C(F)(F)F)c6)CN(c6cccc([C@]8(Cc9nncn9C)C[C@@H](C#N)C8)c6)C7=O)CC5)CC4)CC3)c21 (stereo partly drawn) [Example 289, (1r,3r)-3-[(4-methyl-4H-1,2,4-triazol-3-yl)methyl]-3-(3-{1-oxo-6-[(4-{[(1r,4r)-4-({1-[1-(2,6-dioxopiperidin-3-yl)-2-oxo-3-(propan-2-yl)-2,3-dihydro-1H-1,3-benzodiazol-4-yl]piperidin-4-yl}oxy)cyclohexyl]methyl}-1,4-diazepan-1-yl)methyl]-4-(trifluoromethyl)-2,3-dihydro-1H-isoindol-2-yl}phenyl)cyclobutane-1-carbonitrile]
5 to 50 nM | > 70% | < 5 nM | – | 35 to 70% | Cc1cc(N2CCC(CN3CCC4(CC3)CN(c3cc5c(c(C(F)(F)F)c3)CN(c3cccc([C@]6(Cc7nncn7C)C[C@@H](C#N)C6)c3)C5=O)C4)CC2)c(F)c2c1C(=O)N(C1CCC(=O)NC1=O)C2 (stereo partly drawn) [Example 171, (1r,3r)-3-(3-{6-[7-({1-[2-(2,6-dioxopiperidin-3-yl)-4-fluoro-7-methyl-1-oxo-2,3-dihydro-1H-isoindol-5-yl]piperidin-4-yl}methyl)-2,7-diazaspiro[3.5]nonan-2-yl]-1-oxo-4-(trifluoromethyl)-2,3-dihydro-1H-isoindol-2-yl}phenyl)-3-[(4-methyl-4H-1,2,4-triazol-3-yl)methyl]cyclobutane-1-carbonitrile]
< 5 nM | > 70% | < 5 nM | – | > 70% | Cn1cnnc1CC1(c2cccc(N3Cc4c(cc(CN5CCC[C@H](CN6CCN(C[C@H]7CC[C@@H](OC8CCN(c9ccc%10c(c9F)CN(C9CCC(=O)NC9=O)C%10=O)CC8)CC7)CC6)C5)cc4C(F)(F)F)C3=O)c2)CC1 (stereo partly drawn) [Example 162, 3-[4-fluoro-1-oxo-5-(4-{[(1r,4r)-4-[(4-{[(3S)-1-{[2-(3-{1-[(4-methyl-4H-1,2,4-triazol-3-yl)methyl]cyclopropyl}phenyl)-3-oxo-7-(trifluoromethyl)-2,3-dihydro-1H-isoindol-5-yl]methyl}piperidin-3-yl]methyl}piperazin-1-yl)methyl]cyclohexyl]oxy}piperidin-1-yl)-2,3-dihydro-1H-isoindol-2-yl]piperidine-2,6-dione]
5 to 50 nM | > 70% | < 5 nM | – | > 70% | COc1c(N2CCC(CN3CCC4(CC3)CN(c3cc5c(c(C(F)(F)F)c3)CN(c3cccc([C@]6(Cc7nncn7C)C[C@@H](C#N)C6)c3)C5=O)C4)CC2)ccc2c1CN(C1CCC(=O)NC1=O)C2=O (stereo partly drawn) [Example 174, (1r,3r)-3-(3-{6-[7-({1-[2-(2,6-dioxopiperidin-3-yl)-4-methoxy-1-oxo-2,3-dihydro-1H-isoindol-5-yl]piperidin-4-yl}methyl)-2,7-diazaspiro[3.5]nonan-2-yl]-1-oxo-4-(trifluoromethyl)-2,3-dihydro-1H-isoindol-2-yl}phenyl)-3-[(4-methyl-4H-1,2,4-triazol-3-yl)methyl]cyclobutane-1-carbonitrile]
> 500 nM | – | > 500 nM | – | – | Cn1cnnc1CC1(c2cccc(N3Cc4c(cc(CN5CCC(CN6CC7(CCN(c8ccc9c(c8)C(=O)N(C8CCC(=O)NC8=O)C9=O)CC7)C6)CC5)cc4C(F)(F)F)C3=O)c2)COC1 (stereo not drawn) [Example 81, 2-(2,6-dioxopiperidin-3-yl)-5-{2-[(1-{[2-(3-{3-[(4-methyl-4H-1,2,4-triazol-3-yl)methyl]oxetan-3-yl}phenyl)-3-oxo-7-(trifluoromethyl)-2,3-dihydro-1H-isoindol-5-yl]methyl}piperidin-4-yl)methyl]-2,7-diazaspiro[3.5]nonan-7-yl}-2,3-dihydro-1H-isoindole-1,3-dione]
50 to 500 nM | – | > 500 nM | – | – | Cn1cnnc1CC1(c2cccc(N3Cc4c(cc(N5CCC6(CC5)CN(CC5CCN(c7ccc8c(c7)C(=O)N(C7CCC(=O)NC7=O)C8=O)CC5)C6)cc4C(F)(F)F)C3=O)c2)COC1 (stereo not drawn) [Example 135, 2-(2,6-dioxopiperidin-3-yl)-5-[4-({7-[2-(3-{3-[(4-methyl-4H-1,2,4-triazol-3-yl)methyl]oxetan-3-yl}phenyl)-3-oxo-7-(trifluoromethyl)-2,3-dihydro-1H-isoindol-5-yl]-2,7-diazaspiro[3.5]nonan-2-yl}methyl)piperidin-1-yl]-2,3-dihydro-1H-isoindole-1,3-dione]
